1 compound from publication PMC7281280, “Is the Way to Fight Cancer Paved with Gold? Metal-Based Carbene Complexes with Multiple and Fascinating Biological Features” (Pharmaceuticals, 2020) can be followed below.

The target in assay [1] is T1, human topoisomerase II (hTopo II) (Homo sapiens, UniProt P11388).
T1 construct: purchased topoGEN, Port Orange, FL, USA
As to the kind of experiment: Human topoisomerase II decatenation assay. It counts as biochemical. The following applies: 1 μM. The procedure: Decatenated and linear kDNA (Figure 8, lanes 1 and 2) are used as markers.
hTopo II decatenation assays were performed in a final volume of […], as reported by Iacopetta et al., using […] of kinetoplast DNA (kDNA) (topoGEN, Port Orange, FL, USA), tested compounds and 3 units of hTopo II (topoGEN, Port Orange, FL, USA). The reaction products were loaded in an agarose gel with EB. At the end, the gel was washed with distilled water and analyzed using a UV transilluminator. The experiment was repeated three times.
Lane 1 and 2, decatenated and linear kDNA, respectively.

Assay [2] has as its system MDA-MB-231 cells. As to the kind of experiment: Detection of intracellular ROS (DCF-DA). Type of assay: cell-based, human. The procedure:
We used 2,7-dichlorofluorescin diacetate (DCF-DA) as a fluorometric probe for ROS detection and their production was examined under an inverted fluorescence microscope, as already reported.
Cells were grown on glass coverslips until the treatment with compound or menadione (used as positive control) (Sigma–Aldrich, Milan, Italy). Then, cells were incubated with 10 μM 2′-7′-Dichlorofluorescein diacetate (Sigma–Aldrich, Milan, Italy) for 40 min at 37 °C in a 5% CO2 incubator, as previously described. Then, DAPI (0.2 μg mL^−1) counterstain was performed for 10 min at room temperature, in the dark. Cells were then washed three times with cold PBS, adding one drop of mounting solution, then they were observed and imaged under a fluorescence microscope (Leica DM6000; 20× magnification) with excitation/emission wavelength maxima of 490 nm/515 nm (DCF) or 350 nm/460 nm (DAPI). Images are representative of three independent experiments.
Images were acquired at 20× magnification. […] Fields are representative of three separate experiments.

In assay [3] the test system is caspase-9. Particulars: 5 μM, 24 h, MDA-MB-231 cells.
The test system of assay [4] is MDA-MB-231 cells. In words: Muse cell cycle assay. Particulars: at IC50, 72 h.
The subject of assay [5] is caspases 3/7. In words: Caspase-Glo assay, caspases 3/7. The following applies: 5 μM, 24 h, MDA-MB-231 cells.

T1 sequence (P11388 whole entry): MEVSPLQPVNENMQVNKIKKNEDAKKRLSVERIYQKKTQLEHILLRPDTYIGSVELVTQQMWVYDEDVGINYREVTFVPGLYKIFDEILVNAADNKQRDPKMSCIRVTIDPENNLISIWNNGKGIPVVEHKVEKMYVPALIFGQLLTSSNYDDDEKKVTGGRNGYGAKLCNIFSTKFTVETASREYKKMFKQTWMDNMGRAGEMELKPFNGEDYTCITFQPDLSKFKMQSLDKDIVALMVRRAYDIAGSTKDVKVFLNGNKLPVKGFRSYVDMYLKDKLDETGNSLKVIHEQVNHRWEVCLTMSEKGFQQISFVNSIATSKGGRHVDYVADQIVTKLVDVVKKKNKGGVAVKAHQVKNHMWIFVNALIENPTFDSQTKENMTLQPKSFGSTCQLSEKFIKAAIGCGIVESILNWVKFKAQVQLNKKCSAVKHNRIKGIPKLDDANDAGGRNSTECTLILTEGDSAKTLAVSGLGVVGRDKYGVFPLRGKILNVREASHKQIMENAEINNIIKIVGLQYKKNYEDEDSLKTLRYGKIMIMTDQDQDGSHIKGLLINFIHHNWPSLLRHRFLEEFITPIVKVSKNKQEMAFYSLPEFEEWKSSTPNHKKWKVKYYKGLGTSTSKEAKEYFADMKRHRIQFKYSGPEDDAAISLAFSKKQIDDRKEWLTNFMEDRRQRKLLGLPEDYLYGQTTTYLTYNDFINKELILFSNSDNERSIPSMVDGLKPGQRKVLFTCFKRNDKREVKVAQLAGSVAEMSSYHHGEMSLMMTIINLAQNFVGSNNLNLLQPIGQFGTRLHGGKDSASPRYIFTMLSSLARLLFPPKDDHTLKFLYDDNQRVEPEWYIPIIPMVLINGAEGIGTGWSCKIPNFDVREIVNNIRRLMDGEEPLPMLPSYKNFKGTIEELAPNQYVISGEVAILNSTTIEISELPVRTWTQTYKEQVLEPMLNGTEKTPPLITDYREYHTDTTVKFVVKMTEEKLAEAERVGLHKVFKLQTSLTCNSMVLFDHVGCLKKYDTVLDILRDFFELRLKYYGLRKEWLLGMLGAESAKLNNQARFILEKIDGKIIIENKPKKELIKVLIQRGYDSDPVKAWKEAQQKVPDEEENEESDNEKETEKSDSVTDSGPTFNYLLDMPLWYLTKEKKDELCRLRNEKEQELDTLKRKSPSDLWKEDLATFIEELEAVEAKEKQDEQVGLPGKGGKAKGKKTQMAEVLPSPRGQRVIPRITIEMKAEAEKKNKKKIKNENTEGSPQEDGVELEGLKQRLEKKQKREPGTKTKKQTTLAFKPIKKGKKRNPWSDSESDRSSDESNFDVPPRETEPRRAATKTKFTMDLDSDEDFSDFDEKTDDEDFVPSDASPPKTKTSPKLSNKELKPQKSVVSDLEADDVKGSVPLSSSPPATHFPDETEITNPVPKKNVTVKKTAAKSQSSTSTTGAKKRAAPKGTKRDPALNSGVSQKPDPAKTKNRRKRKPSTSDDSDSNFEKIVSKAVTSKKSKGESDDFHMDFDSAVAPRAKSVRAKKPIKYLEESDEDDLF

As for `C[n+]1c(Cl)c(Cl)n(CC(O)c2ccccc2)[c]1[Au-][c]1n(CC(O)c2ccccc2)c(Cl)c(Cl)[n+]1C.[Cl][Au-][Cl]` (racemic) [AuL7, bis-[4,5-dichloro-(N-methyl-N’(2-hydroxy-2-phenyl)ethyl-imidazole-2-ylidene)gold(I)]^+[dichloro-gold]^−], in assay [1], the “inhibition of hTopo II decatenation activity” value is “total blockade of hTopoII activity”. Also, the “ROS production, fold lesser compared to Men-treated cells” value in assay [2] (DCF fluorescence quantified by ImageJ) was found to be 1.5 fold. Further, the “ROS production (DCF green fluorescence)” value in assay [2] (fluorescence microscopy) is “significantly higher with respect to the vehicle-treated cells”. Moreover, the caspase-9 activity entry in assay [3] was “discrete increase”. Further, in assay [4], the “increase of the percentage of cells in G2/M phase vs DMSO control” value is on record as 33.2% and the “increase of the percentage of cells in S phase vs DMSO control” value is 16.1%. Besides, the “caspases 3/7 activity” value in assay [5] is “clear increase”.
